Calls of active or inactive are those of the source.
Experiments:
[1] = Luminescence Cell-Based Dose Confirmation HTS to Identify Inhibitors of Platelet Dense Granule Release. [Related pubchem assays: 1663 (Primary HTS), 1678 (Summary of Project)]; assay type: functional
[2] = biological target: Luciferin 4-monooxygenase (Photinus pyralis, UniProt P08659); experiment: inhibition of purified Photinus pyralis luciferase – biochemical, luminescence, dose response (AID 1891)
[3] = toxicity toward HepG2 liver cells – cell-based, plate reader, cherry-pick, antagonist series, cytotoxicity control, dose response (AID 743416); assay type: functional
CAAX prenyl protease 2 = biological target: T1, CAAX prenyl protease 2 (Saccharomyces cerevisiae S288c, UniProt Q03530); assay type: biochemical
T1 sequence (Q03530 whole entry): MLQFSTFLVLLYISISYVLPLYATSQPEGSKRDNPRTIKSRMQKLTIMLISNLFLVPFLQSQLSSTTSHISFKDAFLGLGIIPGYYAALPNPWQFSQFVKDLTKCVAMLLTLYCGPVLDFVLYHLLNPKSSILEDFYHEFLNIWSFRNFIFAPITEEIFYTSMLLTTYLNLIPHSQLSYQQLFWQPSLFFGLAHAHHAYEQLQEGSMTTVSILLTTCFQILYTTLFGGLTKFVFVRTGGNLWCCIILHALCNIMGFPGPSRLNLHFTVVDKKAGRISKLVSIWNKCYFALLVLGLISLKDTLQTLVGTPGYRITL

Beta-galactosidase = Beta-galactosidase (Escherichia coli, UniProt Q8VNN2); experiment: Dose response counterscreen for EBI2 assay utilizing the enzyme, b-galactosidase.; assay type: functional
Chain of Beta-galactosidase (Q8VNN2 whole entry): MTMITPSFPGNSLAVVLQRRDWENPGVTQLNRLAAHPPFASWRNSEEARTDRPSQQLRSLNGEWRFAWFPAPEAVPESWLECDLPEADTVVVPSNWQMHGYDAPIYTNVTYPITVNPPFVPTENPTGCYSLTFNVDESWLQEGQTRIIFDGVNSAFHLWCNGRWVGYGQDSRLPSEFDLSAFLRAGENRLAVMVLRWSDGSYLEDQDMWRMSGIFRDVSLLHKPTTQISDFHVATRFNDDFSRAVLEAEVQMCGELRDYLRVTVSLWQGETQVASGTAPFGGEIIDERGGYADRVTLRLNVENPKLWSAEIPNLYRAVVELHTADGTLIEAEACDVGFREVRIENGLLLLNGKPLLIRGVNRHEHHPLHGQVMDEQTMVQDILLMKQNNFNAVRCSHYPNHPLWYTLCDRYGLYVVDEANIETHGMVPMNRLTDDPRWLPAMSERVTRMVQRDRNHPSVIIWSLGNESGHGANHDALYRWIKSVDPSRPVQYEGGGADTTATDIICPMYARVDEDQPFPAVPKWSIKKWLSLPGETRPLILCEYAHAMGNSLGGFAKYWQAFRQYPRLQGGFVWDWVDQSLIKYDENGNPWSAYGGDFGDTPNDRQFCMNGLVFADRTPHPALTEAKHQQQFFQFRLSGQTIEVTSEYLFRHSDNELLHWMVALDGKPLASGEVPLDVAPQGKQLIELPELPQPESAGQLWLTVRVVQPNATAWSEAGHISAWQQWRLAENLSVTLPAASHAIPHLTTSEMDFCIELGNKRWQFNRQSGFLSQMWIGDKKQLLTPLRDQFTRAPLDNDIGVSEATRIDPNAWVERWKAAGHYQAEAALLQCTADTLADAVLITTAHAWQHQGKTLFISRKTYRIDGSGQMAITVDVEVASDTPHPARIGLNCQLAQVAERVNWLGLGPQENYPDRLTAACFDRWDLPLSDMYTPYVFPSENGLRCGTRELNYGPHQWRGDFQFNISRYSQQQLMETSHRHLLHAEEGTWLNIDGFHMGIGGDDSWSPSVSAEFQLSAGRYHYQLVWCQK

Fatty acid synthase [4] = biological target: T2, Fatty acid synthase (Homo sapiens, UniProt P49327); experiment: inhibition of human FAS-TE enzyme activity – biochemical, kinetic fluorescence intensity, dose response (AID 624326); assay type: functional;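 note: rate of fluorescence rise from hydrolysis of a fluorogenic O-methyl fluorescein ester substrate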
T2 sequence (P49327 whole entry): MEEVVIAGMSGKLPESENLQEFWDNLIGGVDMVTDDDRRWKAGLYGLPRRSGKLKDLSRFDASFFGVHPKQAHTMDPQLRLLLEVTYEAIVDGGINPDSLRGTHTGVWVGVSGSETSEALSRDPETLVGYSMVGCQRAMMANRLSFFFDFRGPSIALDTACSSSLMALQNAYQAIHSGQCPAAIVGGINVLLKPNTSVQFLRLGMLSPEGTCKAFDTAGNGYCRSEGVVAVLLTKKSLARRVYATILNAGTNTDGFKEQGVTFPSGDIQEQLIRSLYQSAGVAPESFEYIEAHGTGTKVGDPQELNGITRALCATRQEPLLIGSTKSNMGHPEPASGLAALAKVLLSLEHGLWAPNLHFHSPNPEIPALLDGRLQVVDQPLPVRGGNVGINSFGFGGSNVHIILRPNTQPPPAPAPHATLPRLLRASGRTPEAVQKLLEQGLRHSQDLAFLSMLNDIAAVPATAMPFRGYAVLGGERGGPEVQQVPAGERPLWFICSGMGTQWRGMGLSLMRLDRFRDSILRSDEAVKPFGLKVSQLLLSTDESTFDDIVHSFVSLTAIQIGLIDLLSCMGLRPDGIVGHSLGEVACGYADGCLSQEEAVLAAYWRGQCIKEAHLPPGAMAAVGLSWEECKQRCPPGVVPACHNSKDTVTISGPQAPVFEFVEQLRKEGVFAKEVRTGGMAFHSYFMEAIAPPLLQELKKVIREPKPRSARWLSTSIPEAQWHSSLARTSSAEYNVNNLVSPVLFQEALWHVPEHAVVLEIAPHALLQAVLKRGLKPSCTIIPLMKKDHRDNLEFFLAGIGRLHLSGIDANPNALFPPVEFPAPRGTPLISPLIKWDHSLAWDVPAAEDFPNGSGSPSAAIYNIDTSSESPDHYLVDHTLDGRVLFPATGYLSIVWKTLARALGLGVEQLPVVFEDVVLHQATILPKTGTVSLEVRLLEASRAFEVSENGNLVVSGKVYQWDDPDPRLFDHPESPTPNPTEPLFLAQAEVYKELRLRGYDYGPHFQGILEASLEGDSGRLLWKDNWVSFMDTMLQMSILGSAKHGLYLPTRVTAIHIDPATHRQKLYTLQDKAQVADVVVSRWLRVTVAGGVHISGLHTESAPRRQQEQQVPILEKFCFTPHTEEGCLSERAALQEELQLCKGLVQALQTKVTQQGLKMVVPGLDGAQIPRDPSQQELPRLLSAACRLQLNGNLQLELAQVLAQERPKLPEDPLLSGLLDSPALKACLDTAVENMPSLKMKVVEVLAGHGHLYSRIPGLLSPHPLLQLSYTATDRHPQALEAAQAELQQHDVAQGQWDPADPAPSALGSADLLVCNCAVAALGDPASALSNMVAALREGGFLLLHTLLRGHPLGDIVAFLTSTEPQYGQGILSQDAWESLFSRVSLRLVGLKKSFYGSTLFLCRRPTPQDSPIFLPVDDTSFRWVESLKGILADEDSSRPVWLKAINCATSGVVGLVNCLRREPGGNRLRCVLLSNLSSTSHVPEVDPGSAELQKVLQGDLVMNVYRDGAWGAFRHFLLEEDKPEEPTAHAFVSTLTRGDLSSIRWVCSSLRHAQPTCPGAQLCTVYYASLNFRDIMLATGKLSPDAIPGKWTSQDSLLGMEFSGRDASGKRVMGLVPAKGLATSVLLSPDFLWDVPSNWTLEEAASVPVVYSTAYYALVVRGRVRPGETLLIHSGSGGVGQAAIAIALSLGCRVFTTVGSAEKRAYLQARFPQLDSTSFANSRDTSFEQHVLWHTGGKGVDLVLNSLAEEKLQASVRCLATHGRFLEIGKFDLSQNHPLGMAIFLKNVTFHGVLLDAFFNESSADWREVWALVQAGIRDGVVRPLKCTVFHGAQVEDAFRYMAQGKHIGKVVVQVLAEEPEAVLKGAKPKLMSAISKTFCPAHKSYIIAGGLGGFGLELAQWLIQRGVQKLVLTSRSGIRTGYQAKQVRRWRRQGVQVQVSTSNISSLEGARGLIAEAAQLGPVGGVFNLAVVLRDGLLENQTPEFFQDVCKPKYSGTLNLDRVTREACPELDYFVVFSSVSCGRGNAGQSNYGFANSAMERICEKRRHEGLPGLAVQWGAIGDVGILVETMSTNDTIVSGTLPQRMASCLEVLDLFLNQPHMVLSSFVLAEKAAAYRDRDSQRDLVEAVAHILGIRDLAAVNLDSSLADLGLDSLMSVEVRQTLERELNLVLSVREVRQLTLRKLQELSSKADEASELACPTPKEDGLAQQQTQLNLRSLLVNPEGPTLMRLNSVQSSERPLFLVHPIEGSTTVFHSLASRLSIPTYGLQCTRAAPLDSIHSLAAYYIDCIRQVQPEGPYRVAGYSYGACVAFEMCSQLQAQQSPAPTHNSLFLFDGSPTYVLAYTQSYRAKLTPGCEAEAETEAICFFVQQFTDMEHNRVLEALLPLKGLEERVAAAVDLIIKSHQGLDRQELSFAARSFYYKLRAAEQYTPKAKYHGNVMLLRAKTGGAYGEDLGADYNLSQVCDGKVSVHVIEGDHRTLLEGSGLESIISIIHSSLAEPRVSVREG

Fatty acid synthase [5] = biological target: T2, Fatty acid synthase; experiment: inhibition of human FAS-TE enzyme activity – biochemical, endpoint fluorescence intensity, uHTS hits, dose response (AID 624327); assay type: functional;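 note: fluorescence from hydrolysis of an O-methyl fluorescein acyl ester substrate by the enzyme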
[6] = biological target: T3, Sentrin-specific protease 6 (Homo sapiens, UniProt Q9GZR1); assay type: functional;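 note: Luminescence-based dose-response confirmatory assay of SENP6 inhibition, following up an ultra-high-throughput screen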
T3 sequence (Q9GZR1 whole entry): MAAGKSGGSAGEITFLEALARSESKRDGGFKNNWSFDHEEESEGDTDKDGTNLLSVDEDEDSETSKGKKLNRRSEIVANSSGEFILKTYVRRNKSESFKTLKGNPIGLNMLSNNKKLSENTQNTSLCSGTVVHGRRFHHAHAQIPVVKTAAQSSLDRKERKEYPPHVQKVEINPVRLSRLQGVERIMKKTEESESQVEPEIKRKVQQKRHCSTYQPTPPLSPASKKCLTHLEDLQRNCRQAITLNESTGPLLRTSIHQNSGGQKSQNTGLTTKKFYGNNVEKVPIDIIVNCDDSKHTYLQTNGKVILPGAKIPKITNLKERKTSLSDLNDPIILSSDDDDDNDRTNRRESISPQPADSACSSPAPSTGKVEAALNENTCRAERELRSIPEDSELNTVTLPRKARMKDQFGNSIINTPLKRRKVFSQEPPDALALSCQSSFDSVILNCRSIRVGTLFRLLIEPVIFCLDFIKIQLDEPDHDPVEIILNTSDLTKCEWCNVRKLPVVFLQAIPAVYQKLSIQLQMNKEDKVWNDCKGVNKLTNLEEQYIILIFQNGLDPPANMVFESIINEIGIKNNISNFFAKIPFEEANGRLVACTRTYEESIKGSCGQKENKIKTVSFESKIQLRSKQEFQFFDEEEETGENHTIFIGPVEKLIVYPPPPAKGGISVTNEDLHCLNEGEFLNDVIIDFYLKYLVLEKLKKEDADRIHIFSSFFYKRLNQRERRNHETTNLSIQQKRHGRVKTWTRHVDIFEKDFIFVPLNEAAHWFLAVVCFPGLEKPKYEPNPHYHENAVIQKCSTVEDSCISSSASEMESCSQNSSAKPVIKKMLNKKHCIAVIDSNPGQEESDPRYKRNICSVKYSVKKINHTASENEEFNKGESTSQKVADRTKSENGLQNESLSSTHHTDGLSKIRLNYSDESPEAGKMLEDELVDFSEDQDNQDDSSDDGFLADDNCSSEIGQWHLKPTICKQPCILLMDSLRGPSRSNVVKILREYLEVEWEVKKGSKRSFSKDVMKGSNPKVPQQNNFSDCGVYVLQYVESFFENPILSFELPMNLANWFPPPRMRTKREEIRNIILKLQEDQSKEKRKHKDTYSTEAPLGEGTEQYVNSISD

[7] = biological target: T4, Sentrin-specific protease 7 (Homo sapiens, UniProt Q9BQF6); assay type: functional;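 note: Luminescence-based dose-response confirmation of ultra-high-throughput screening hits, measuring inhibition of SENP7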
T4 sequence (Q9BQF6 whole entry): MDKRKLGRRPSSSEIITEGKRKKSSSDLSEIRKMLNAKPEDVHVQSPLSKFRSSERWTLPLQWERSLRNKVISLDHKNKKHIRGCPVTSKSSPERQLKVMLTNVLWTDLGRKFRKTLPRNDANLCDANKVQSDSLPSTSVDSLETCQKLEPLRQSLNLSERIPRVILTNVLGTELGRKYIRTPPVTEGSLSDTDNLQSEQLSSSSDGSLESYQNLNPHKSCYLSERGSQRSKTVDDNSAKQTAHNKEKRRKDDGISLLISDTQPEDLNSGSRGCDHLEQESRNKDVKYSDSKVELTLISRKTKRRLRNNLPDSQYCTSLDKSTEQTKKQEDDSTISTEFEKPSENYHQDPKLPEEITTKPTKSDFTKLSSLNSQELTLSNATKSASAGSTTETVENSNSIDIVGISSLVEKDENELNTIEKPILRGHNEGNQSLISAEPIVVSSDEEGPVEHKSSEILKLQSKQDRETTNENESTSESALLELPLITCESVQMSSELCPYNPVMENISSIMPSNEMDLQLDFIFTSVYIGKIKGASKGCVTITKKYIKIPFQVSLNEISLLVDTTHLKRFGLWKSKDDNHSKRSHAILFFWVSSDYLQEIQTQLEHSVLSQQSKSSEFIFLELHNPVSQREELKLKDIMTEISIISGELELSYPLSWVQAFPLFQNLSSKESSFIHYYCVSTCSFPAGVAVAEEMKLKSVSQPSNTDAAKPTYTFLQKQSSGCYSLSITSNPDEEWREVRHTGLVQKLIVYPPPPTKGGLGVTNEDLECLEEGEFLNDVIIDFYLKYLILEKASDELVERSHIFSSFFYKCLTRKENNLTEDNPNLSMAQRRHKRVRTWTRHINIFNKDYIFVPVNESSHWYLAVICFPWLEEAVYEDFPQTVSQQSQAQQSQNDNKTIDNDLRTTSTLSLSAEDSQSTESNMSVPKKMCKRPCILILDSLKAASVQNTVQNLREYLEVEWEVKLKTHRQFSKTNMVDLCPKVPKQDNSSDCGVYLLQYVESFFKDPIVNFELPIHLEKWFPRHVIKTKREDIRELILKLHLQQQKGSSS

Caspase-3 = biological target: T5, Caspase-3 (Homo sapiens, UniProt P42574); assay type: functional;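 note: Dose-response selectivity test against caspase-3 for candidate inhibitors of sentrin-specific proteases (SENPs)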
T5 sequence (P42574 whole entry): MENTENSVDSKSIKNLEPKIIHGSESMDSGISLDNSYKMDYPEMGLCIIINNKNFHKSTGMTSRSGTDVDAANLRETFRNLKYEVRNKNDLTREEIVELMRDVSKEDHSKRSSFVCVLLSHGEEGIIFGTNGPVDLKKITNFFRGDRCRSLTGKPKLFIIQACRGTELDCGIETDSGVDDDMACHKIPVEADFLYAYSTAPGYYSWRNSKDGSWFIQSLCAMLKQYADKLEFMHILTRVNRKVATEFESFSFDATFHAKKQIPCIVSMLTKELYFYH

[8] = biological target: T6, Sentrin-specific protease 8 (Homo sapiens, UniProt Q96LD8); assay type: functional;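 note: luminescence read-out of SENP8 inhibition, dose-response confirmation following an ultra-high-throughput screen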
T6 sequence (Q96LD8 whole entry): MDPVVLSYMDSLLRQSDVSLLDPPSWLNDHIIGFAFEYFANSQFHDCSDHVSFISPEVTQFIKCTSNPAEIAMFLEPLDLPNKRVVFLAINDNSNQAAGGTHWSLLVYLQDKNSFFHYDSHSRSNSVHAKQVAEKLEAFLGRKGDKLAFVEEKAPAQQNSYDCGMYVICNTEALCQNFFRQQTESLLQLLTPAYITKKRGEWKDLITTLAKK

cells = assay type: functional
[9] = biological target: T7, Heat shock factor protein 1 (Mus musculus, UniProt P38532); experiment: decrease of HSF1-responsive luciferase luminescence – cell-based, NIH3T3, dose retest, confirmation (AID 2382); assay type: functional;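 note: NIH3T3 fibroblasts with HSF1-driven luciferase reporter stressed by proteasome inhibitor MG132; luminescence from HSF1-driven luciferase expression after 8 hours of MG132 stress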
T7 sequence (P38532 whole entry): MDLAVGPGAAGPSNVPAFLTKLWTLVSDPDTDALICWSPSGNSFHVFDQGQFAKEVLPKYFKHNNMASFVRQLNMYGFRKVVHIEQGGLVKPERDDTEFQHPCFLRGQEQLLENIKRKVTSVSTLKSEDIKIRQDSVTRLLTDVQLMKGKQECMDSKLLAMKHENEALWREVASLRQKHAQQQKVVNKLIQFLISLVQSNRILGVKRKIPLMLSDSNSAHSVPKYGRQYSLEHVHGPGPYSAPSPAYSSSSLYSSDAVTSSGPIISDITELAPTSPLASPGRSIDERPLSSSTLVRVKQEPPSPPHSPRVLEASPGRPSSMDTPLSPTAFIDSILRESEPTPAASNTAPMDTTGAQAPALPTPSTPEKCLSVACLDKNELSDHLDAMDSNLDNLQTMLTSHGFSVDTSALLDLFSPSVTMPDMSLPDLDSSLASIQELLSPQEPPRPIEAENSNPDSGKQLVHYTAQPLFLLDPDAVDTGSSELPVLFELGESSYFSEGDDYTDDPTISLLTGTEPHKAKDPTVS

HEK293 = experiment: EBV LMP1 TES2 canonical NF-kB signalling blockers – cell-based, HEK293, luciferase, cherry-pick, dose response (AID 588343); assay type: functional; conditions: Homo sapiens
Protein skinhead-1 = biological target: T8, Protein skinhead-1 (Caenorhabditis elegans, UniProt P34707); assay type: functional
T8 sequence (P34707 whole entry): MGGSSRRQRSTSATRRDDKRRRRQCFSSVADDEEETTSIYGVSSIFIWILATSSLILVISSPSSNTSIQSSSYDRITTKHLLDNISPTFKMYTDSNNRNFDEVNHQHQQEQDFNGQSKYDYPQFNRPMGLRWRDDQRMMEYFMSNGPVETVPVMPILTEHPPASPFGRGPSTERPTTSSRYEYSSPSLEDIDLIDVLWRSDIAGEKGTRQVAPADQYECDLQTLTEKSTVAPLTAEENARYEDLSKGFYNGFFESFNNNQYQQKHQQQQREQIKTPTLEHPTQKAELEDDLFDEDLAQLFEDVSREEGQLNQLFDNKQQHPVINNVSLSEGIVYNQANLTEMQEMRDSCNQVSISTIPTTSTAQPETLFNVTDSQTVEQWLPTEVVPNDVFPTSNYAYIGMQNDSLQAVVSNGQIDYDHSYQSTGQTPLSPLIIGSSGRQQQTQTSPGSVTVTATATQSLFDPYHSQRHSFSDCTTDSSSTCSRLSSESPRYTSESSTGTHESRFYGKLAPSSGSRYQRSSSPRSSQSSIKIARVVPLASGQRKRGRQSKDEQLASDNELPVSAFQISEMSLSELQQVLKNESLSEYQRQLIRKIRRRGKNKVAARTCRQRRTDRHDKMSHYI

Chain of Luciferin 4-monooxygenase (P08659 whole entry): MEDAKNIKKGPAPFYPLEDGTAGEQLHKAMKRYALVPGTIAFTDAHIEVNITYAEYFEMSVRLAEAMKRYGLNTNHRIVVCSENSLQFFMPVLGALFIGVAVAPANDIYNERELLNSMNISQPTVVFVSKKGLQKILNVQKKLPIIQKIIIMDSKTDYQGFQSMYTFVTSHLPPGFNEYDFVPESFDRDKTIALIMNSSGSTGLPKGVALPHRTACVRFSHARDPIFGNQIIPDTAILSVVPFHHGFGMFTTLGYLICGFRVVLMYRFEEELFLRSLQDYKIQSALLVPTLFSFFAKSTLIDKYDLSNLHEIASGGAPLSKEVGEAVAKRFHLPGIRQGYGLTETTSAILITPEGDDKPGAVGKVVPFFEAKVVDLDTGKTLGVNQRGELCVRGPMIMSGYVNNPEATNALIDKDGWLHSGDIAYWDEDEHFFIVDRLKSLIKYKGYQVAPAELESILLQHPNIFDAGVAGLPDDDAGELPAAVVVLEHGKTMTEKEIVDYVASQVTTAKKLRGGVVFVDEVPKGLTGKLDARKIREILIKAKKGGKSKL

Cc1[nH]c2nc(SCC(=O)c3ccccc3)nc-2cc1Br
EC50 [1]: > 112 µM (not active) | EC50 [2]: > 112 µM (not active)

Cc1ccc(CNS(=O)(=O)c2ccc3c(c2)CCN3C(=O)CCCC(=O)O)cc1
AC50 [3]: > 52 µM (inactive)

O=C(c1cnc2n(c1=O)CCS2)N1CCN(C(c2ccccc2)c2ccc(Cl)cc2)CC1 (stereo unspecified)
AC50 (CAAX prenyl protease 2): 8.81 µM (active)

CC(C)(C)CNC(=O)c1cccc2c1C(=O)c1ccc(N3CCCC3)cc1S2(=O)=O
IC50 (Beta-galactosidase): > 80 µM (inactive)

C[C@@H]1CN([C@H](C)CO)S(=O)(=O)c2ccc(C#Cc3ccccc3F)cc2O[C@@H]1CN(C)C(=O)Cc1ccccc1
IC50 (Fatty acid synthase [4]): 3.79 µM (active) | IC50 (Beta-galactosidase): > 80 µM (inactive) | IC50 (Fatty acid synthase [5]): 3.71 µM (active)

O=C(CCCN1C(=O)/C(=C/c2cccc(Br)c2)SC1=S)N1CCOCC1
IC50 [6]: 79.6 µM (active) | IC50 [7]: 45.6 µM (active) | IC50 (Caspase-3): > 100 µM (inactive) | IC50 [8]: 78.1 µM (active)

CC(=O)Oc1ccc(/C=C/c2nc3ccccc3c(=O)o2)cc1
EC50 [1]: 0.333 µM (active) | EC50 [2]: 0.359 µM (active)

COc1cccc(NC(=O)Cn2c3ccc(F)cc3c3nc4n(c(=O)c32)CCCS4)c1
IC50 (Beta-galactosidase): > 80 µM (inactive)

COc1ccc(COc2ccc3c(C)cc(=O)oc3c2)cc1
IC50 [6]: 21.6 µM (active) | IC50 [7]: 9.04 µM (active) | IC50 (Caspase-3): 20 µM (active) | IC50 [8]: 32.3 µM (active)

COc1cc(/C=C(\C#N)C(=O)Nc2ccc3ccccc3c2)c([N+](=O)[O-])cc1OC
IC50 (Beta-galactosidase): > 80 µM (inactive)

Cc1ccc(C)c(-c2nnc(NC(=O)CS(=O)(=O)c3ccccc3)o2)c1
EC50 [1]: > 112 µM (not active) | EC50 [2]: > 112 µM (not active)

CN(C)CCN(C(=O)c1ccc2ccccc2c1)c1nc2ccc(Br)cc2s1
AC50 (CAAX prenyl protease 2): 4.77 µM (active)

CN1/C(=C\C(=O)COC(=O)c2ccc([N+](=O)[O-])o2)C(C)(C)c2ccccc21
EC50 [1]: > 112 µM (not active) | EC50 [2]: > 112 µM (not active) | IC50 (cells): 1.22 µM (active)

O=C(c1ccccc1)C1CCN(C(=O)c2ccc(Cl)cc2)CC1
IC50 (Beta-galactosidase): > 80 µM (inactive)

CCOc1ccc(/C=N/NC(=O)c2ccc(Cn3cc(Br)cn3)o2)cc1
IC50 [6]: 52.7 µM (active) | IC50 [7]: 13.2 µM (active) | IC50 (Caspase-3): 35.4 µM (active) | IC50 [8]: 56.5 µM (active)

COc1ccc(NC(=O)c2sc(SCc3ccccc3)nc2N)cc1
IC50 (Beta-galactosidase): > 80 µM (inactive)

O=C1/C(=C\c2ccc(O)cc2)SC(=S)N1Cc1ccccc1
IC50 [6]: 8 µM (active) | IC50 [7]: 16 µM (active) | IC50 (Caspase-3): 41 µM (active) | IC50 [8]: 9.59 µM (active)

O=C(/C=C/Nc1ccc(F)cc1Br)c1ccccc1
EC50 [9]: < 0.16 µM (active) | AC50 (HEK293): 1.38 µM (active) | IC50 (Protein skinhead-1): > 100 µM (inactive) | EC50 [1]: 3.37 µM (active) | EC50 [2]: 0.283 µM (active)

— ChEMBL document CHEMBL1201862, “PubChem BioAssay data set” (2004)
